Reference: US20050075382A1, “N-Aryl-2-cyanooxazolidinones and their derivatives” (priority 2003, published 2005)
Values after ≈ are worked out from the molar mass of the structure shown.

Each compound was assayed on Staphylococcus aureus (SAUR 9213) (assay: MIC by standard agar dilution method). Details: Mueller Hinton agar, overnight at 35° C.
Format: cell-based
From the text: The antibacterial agents of this invention have useful activity against a variety of organisms. The in vitro activity of compounds of this invention can be assessed by standard testing procedures such as the determination of minimum inhibitory concentration (MIC) by agar dilution as described in “Approved Standard. Methods for Dilution Antimicrobial Susceptibility Tests for Bacteria That Grow Aerobically”, 3rd. ed., published 1993 by the National Committee for Clinical Laboratory Standards, Villanova, Pa., USA. The in vitro MICs of test compounds are determined by a standard agar dilution method. A stock drug solution of each analog is prepared in the preferred solvent, usually DMSO:H2O (1:3). Serial 2-fold dilutions of each sample are made using 1.0 ml aliquots of sterile distilled water. To each 1.0 ml aliquot of drug is added 9 ml of molten Mueller Hinton agar medium. The drug-supplemented agar is mixed, poured into 15×100 mm petri dishes, and allowed to solidify and dry prior to inoculation. Vials of each of the test organisms are maintained frozen in the vapor phase of a liquid nitrogen freezer. Test cultures are grown overnight at 35° C. on the medium appropriate for the organism. Colonies are harvested with a sterile swab, and cell suspensions are prepared in Trypticase Soy broth (TSB) to equal the turbidity of a 0.5 McFarland standard. A 1:20 dilution of each suspension is made in TSB. The plates containing the drug supplemented agar are inoculated with a 0.001 ml drop of the cell suspension using a Steers replicator, yielding approximately 10^4 to 10^5 cells per spot. The plates are incubated overnight at 35° C. Following incubation the Minimum Inhibitory Concentration (MIC μg/ml), the lowest concentration of drug that inhibits visible growth of the organism, is read and recorded.

| Structure (SMILES) | MIC [µg/mL] |
| --- | --- |
| N#C[C@H]1CN(c2ccc(C3CCS(=O)(=O)CC3)c(F)c2)C(=O)O1 [Example 1, (5R)-3-[4-(1,1-dioxidotetrahydro-2H-thiopyran-4-yl)-3-fluorophenyl]-2-oxo-1,3-oxazolidine-5-carbonitrile] | 1 (≈ 2.96 µM) |
| N#C[C@H]1CN(c2cc(F)c(N3CCS(=O)(=O)CC3)c(F)c2)C(=O)O1 [Example 3, (5R)-3-[4-(1,1-dioxidothiomorpholin-4-yl)-3,5-difluorophenyl]-2-oxo-1,3-oxazolidine-5-carbonitrile] | 2 (≈ 5.6 µM) |
| N#C[C@H]1CN(c2ccc(N3CCOCC3)c(F)c2)C(=O)O1 [Example 2, (5R)-3-(3-fluoro-4-morpholin-4-ylphenyl)-2-oxo-1,3-oxazolidine-5-carbonitrile] | 8 (≈ 27.5 µM) |

Results, then the compound that gave them:

| MIC [µg/mL] | Structure (SMILES) |
| --- | --- |
| 4 (≈ 13.1 µM) | Cc1nnc(-c2ccc(N3C[C@H](C#N)OC3=O)cc2F)s1 [Example 4, (5R)-3-[3-fluoro-4-(5-methyl-1,3,4-thiadiazol-2-yl)phenyl]-2-oxo-1,3-oxazolidine-5-carbonitrile] |
| 0.5 (≈ 1.77 µM) | N#C[C@H]1CN(c2ccc(-c3ccncc3)c(F)c2)C(=O)O1 [Example 5, (5R)-3-(3-fluoro-4-pyridin-4-ylphenyl)-2-oxo-1,3-oxazolidine-5-carbonitrile] |
